According to paper PMC7278979, “Ellagic Acid Controls Cell Proliferation and Induces Apoptosis in Breast Cancer Cells via Inhibition of Cyclin-Dependent Kinase 6” (International Journal of Molecular Sciences, 2020):

Legend:
CDK6 [1] = target: T1, CDK6 (Homo sapiens, UniProt Q00534); test: Fluorescence binding (quenching) study with recombinant CDK6; details: for Ksv: Stern-Volmer plot; for ΔG°: van 't Hoff equation
T1 construct: The 981-bp coding region (326 amino acids) was amplified by PCR from plasmid pcDNA containing the CDK6 gene; His-tag; made in house; host or cells: E. coli BL21 (codon+), pET28a+ (NcoI/XhoI)
Description: To study the binding affinity of EA with the recombinant CDK6, a fluorescence binding study was performed. CDK6 was titrated with the EA and corresponding emission spectra were recorded in the range of 300–400 nm after carrying out excitation at 280 nm. The inner filter effect was corrected for the obtained intensities. Fluorescence emission spectra were analyzed by the Stern-Volmer equation to find Stern-Volmer constant (Ksv) and modified Stern-Volmer equation to estimate the binding constant (K) and the number of binding sites (n). Other binding features were estimated by our previously described protocol.
With each reaction, changes in enthalpy and entropy are associated, which are evidence of the type of reaction taking place. Equation (1) (“van ’t Hoff equation”) was employed to calculate the thermodynamic parameters associated with this binding, (1) ΔG°=−RTLnK=ΔH°−TΔS°

CDK6 [2] = target: T1, CDK6; test: Isothermal titration calorimetry of EA with CDK6; details: ITC, 25 °C, one binding site model; read-out: Ka (binding constant) (converted)
Description: ITC measurements were carried out at 25 °C using a VP-ITC microcalorimeter (MicroCal, Inc, GE, MicroCal, USA). The sample cell was filled with 15–20 µM CDK6 and 500 µM EA solution was filled in the syringe. An automated titration was carried out with (including a first false injection of 2 μL) a successive injection of 10 μL EA solution into a CDK6 sample cell at a 260 s interval with 320 rpm stirring speed. For analysis, the heat of dilution of EA in the sample buffer was subtracted from the titration data. MicroCal Origin 8.0 was used to analyze the stoichiometry of binding (n), enthalpy change (ΔH), an association constant (Ka).

MDA-MB-231 cells [3] = test: Apoptosis assay (Annexin-V staining, flow cytometry); type: cell-based, human; details: MDA-MB-231, IC50 concentration of EA, 48 h
CDK6 [4] = target: T1, CDK6; test: ATPase enzyme inhibition assay (malachite green); type: biochemical; details: CDK6 1 µM, ATP 50 µM, 25 °C, 1 h, AAT Bioquest calculator
Description: ATPase assay was performed to see the CDK6 inhibitory activity of EA [57]. For a typical kinase reaction, freshly prepared ATP (50 µM) was incubated with CDK6 (1 µM) in a reaction volume of 100 μL and incubated at 25 °C for 1 h. Similar reactions were set up with the increasing concentration of EA. Malachite green (200 μL) was further added to the reaction mixture to stop the reaction followed by incubation of samples at room temperature for 20–25 min for the development of color. The absorbance of the final reaction product was measured spectrophotometrically at 620 nm.

MCF-7 cells [5] = test: Cell viability MTT assay; type: cell-based; details: Homo sapiens, MCF7, MCF-7, 48 h (Figure 8 legend; method says 72 h), mean ± SD n = 3
Description: (§1) Cell viabilities of cancer cells with or without EA were evaluated using MTT assay. Briefly, the selected cells (MCF-7 and MDA-MB-231) were seeded in a 96-well (5000–6000 cells/well) culture plate. Overnight grown cells were incubated with EA (0–250 μM) for 72 h in a CO2 incubator, at 37 °C. After a stipulated time of treatment, 20 µL of MTT (from 5 mg/mL stock solution in PBS, pH 7.4) was added to each treatment well of 96-well plate, and plates with MTT solution were incubated additionally for 4–5 h, in the CO2 incubator. Lastly, the formazan were solubilized by adding 100 µL of DMSO to each well. The absorbance (A) of the dissolved purple reaction solution was measured at 570 nm. Absorption readings were converted into percent cell viability and used to estimate 50% inhibitory concentration (IC50) of EA for selected cancer cells.

MDA-MB-231 cells [6] = test: Cell viability MTT assay; type: cell-based; details: Homo sapiens, MDA-MB-231, 48 h (Figure 8 legend; method says 72 h), mean ± SD n = 3
Description: as §1

MCF-7 cells [7] = test: Colony formation assay; type: cell-based, human; details: MCF-7, IC50 concentration of EA, 10–12 days, vs vehicle control
Description: (§2) To perceive the effect of EA treatment on the colonogenic potential of selected cell lines colony formation studies were performed as described previously. Briefly, ~1500–2000 (MCF-7/MDA-MB-231 cells) cells/well were seeded (in triplicates) in each well of a 6-well cell culture plate. The cells were grown in complete cell growth medium for 48 h and incubated with respective IC50 concentrations of EA for 10–12 days, (at 37 °C, in a 5% CO2 incubator). On the other hand, the control cells were incubated with vehicle control (DMSO) under similar experimental conditions. After 10–12 days, the colonies of cells were fixed with 100% methanol and subsequently stained using a 0.4% crystal violet solution (prepared in 25% methanol. Finally, the colonies obtained after staining were photographed, quantified, plotted, and analyzed by comparing with vehicle control.

MDA-MB-231 cells [8] = test: Colony formation assay; type: cell-based, human; details: MDA-MB-231, IC50 concentration of EA, 10–12 days, vs vehicle control
Description: as §2

MCF-7 cells [9] = test: Apoptosis assay (Annexin-V staining, flow cytometry); type: cell-based, human; details: MCF-7, IC50 concentration of EA, 48 h
CDK6 [10] = test: CDK6 expression study (immunoblotting); type: cell-based, human; details: EA-treated vs vehicle control, immunoblot
Description: The cell lysates of EA-treated/untreated MCF-7 and MDA-MB-231 cell lines were prepared using RIPA cell lysis buffer (Thermo Fisher Scientific (USA)) and total protein was isolated. The amount of protein was quantified by a BCA-protein estimation kit. Nearly, 50–60 μg of total protein was subjected for SDS-PAGE, and obtained bands were blotted to polyvinylidene fluoride membrane. The protein of interest was identified using respective primary antibodies and horseradish peroxidase (HRP) conjugated secondary IgG using the luminol method.

[11] = van 't Hoff plot over 298, 301, 303 K (same value printed at each temperature)

T1 sequence (Q00534 whole entry): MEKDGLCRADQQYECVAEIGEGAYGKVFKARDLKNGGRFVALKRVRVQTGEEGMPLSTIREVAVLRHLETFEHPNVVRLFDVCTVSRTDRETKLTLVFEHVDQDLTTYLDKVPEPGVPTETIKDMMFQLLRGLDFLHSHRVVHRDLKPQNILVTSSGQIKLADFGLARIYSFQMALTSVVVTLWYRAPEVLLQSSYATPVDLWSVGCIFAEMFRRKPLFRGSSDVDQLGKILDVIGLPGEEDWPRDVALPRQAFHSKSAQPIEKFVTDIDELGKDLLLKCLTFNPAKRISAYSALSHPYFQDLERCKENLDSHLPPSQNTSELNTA

For `O=c1oc2c(O)c(O)cc3c(=O)oc4c(O)c(O)cc1c4c23` [EA, ellagic acid], the “Kq (bimolecular quenching rate constant)” value (CDK6 [1]; 298 K) was 5.8 10^12 M^−1s^−1, the “TΔS°” value (CDK6 [1]; 298 K) was 84.60 kcal/mol and the “Kq (bimolecular quenching rate constant)” value (CDK6 [1]; 301 K) was 14.2 10^12 M^−1s^−1. The “TΔS°” value (CDK6 [1]; 301 K) was 85.45 kcal/mol, the “Kq (bimolecular quenching rate constant)” value (CDK6 [1]; 303 K) was 19.8 10^12 M^−1s^−1 and the “TΔS°” value (CDK6 [1]; 303 K) was 86.02 kcal/mol. The Ksv (CDK6 [1]; 298 K) was 5.8 10^4 M^−1, the Ksv (CDK6 [1]; 301 K) was 14.2 10^4 M^−1 and the Ksv (CDK6 [1]; 303 K) was 19.8 10^4 M^−1. For the same compound, the “binding constant (K)” value (CDK6 [1]; fluorescence quenching, modified Stern-Volmer, 303 K) was 2.6e+07 M⁻¹, the Kd (CDK6 [1]; fluorescence quenching, modified Stern-Volmer, 303 K, read-out: binding constant (K)) was 100 nM and the “n (number of binding sites)” value (CDK6 [1]; modified Stern-Volmer, 298 K) was 1.32. The Kd (CDK6 [1]; modified Stern-Volmer, 298 K, read-out: K (binding constant) (converted)) was 345 nM, the “n (number of binding sites)” value (CDK6 [1]; modified Stern-Volmer, 301 K) was 1.16 and the Kd (CDK6 [1]; modified Stern-Volmer, 301 K, read-out: K (binding constant) (converted)) was 154 nM. For the same compound, the “n (number of binding sites)” value (CDK6 [1]; modified Stern-Volmer, 303 K) was 1.41, the Kd (CDK6 [1]; modified Stern-Volmer, 303 K, read-out: K (binding constant) (converted)) was 38.5 nM and the “ΔG°” value (CDK6 [1]; 298 K) was -8.73 kcal/mol. The “ΔG°” value (CDK6 [1]; 301 K) was -9.59 kcal/mol, the “ΔG°” value (CDK6 [1]; 303 K) was -10.16 kcal/mol and the “ΔH°” value (CDK6 [1]; [11]) was 75.8657 kcal/mol. For the same compound, the ΔS (CDK6 [1]; [11]) was 283.9087 cal.mol^−1K^−1, the Kd (CDK6 [2]) was 39.7 µM and the “Annexin-V positive cells (apoptosis)” value (MDA-MB-231 cells [3]) was 27.9%. It also gave an IC50 (CDK6 [4]) of 3.05 µM, an IC50 (MCF-7 cells [5]) of 29.1 ± 1.15 µM and an IC50 (MDA-MB-231 cells [6]) of 20.5 ± 1.22 µM. For the same compound, the number of colonies (MCF-7 cells [7]) was “decreases the number of colonies significantly”, the number of colonies (MDA-MB-231 cells [8]) was “decreases the number of colonies significantly” and the “Annexin-V positive cells (apoptosis)” value (MCF-7 cells [9]) was 23.3%. For the same compound, the “expression of CDK6” value (CDK6 [10]; MCF-7 cells) was “decreases the expression of CDK6” and the “expression of CDK6” value (CDK6 [10]; MDA-MB-231 cells) was “decreases the expression of CDK6”.
